From the supplement of paper PMC10307832

compound: Cc1ccc(NC(=O)c2ccc(CN3CCN(C)CC3)cc2)cc1Nc1nc(-c2cccnc2)cs1 [Masitinib]; experiment: relative viability (nuclei count vs DMSO), 5 days (fraction); higher = more cells survive; conditions: 1 µM
How it was run: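 Hoechst staining, done together with fixation and permeabilisation, marked nuclei for 4× imaging and MetaXpress counting. This followed 5 days without medium change after lung cancer cell lines, kept overnight at 37 °C in 1536-well plates, were pinned with five library-drug doses (not always all listed) spaced by √10 on vehicle-anchored plates. Viability is the ratio of treated-well to vehicle-well nuclei, expressed as a median across plates. Plates passed only at control CV below 25% with at least one doubling.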

Compared with SK-MES-1, NCI-H661 is lower in relative viability: 0.99 for the first, 0.947 for the second.

With RERF-LC-KJ the relative viability was 0.829.

compound: CC1=CC(=CC=C1)NC2=NC(=CS2)C3=CC=NC=C3 + CS(=O)(=O)N1CCN(Cc2cc3nc(-c4cccc5[nH]ncc45)nc(N4CCOCC4)c3s2)CC1 [Pictilisib] (partner 1 µM); experiment: relative viability (nuclei count vs DMSO), 5 days (fraction); higher = more cells survive; conditions: first compound 0.08 µM
How it was run: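 Lung cancer cell lines, seeded in 1536-well plates, were treated the following day by pin tool with a single drug or with five library-drug doses (not always all listed) in √10 steps on top of a fixed anchor-drug dose. Cells were fixed and nuclei stained in one step after 5 days, and nuclei were counted. Relative viability is the nuclei count for treated wells divided by that for vehicle wells, reported as medians of duplicate plates.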

Compared with 201T, NCI-H1975 is lower in relative viability: 0.547 for the first, 0.229 for the second.

Going from HCC-827 to NCI-H1299, the relative viability rises from 0.72 to 0.779.

Compared with NCI-H2347, NCI-H1355 is lower in relative viability: 0.583 for the first, 0.268 for the second.

Compared with NCI-H650, CAL-12T is lower in relative viability: 0.771 for the first, 0.286 for the second.

First: NCI-H1666
Second: EPLC-272H
The relative viability of the first is higher: 0.326 for the first, 0.265 for the second.

Going from NCI-H23 to NCI-H1915, the relative viability rises from 0.33 to 0.834.

First: NCI-H1437
Second: NCI-H322M
The relative viability of the first is higher: 0.53 for the first, 0.446 for the second.

Compared with NCI-H1563, NCI-H1792 is lower in relative viability: 0.675 for the first, 0.155 for the second.

First: NCI-H2085
Second: HCC-15
The relative viability of the first is lower: 0.5 for the first, 0.644 for the second.

First: NCI-H1944
Second: PC-3 [JPC-3]
The relative viability of the first is lower: 0.29 for the first, 0.575 for the second.

First: EKVX
Second: LC-2-ad
The relative viability of the first is higher: 0.374 for the first, 0.365 for the second.

Compared with NCI-H1650, NCI-H2170 is lower in relative viability: 0.536 for the first, 0.296 for the second.

First: NCI-H1993
Second: SK-LU-1
The relative viability of the first is higher: 0.804 for the first, 0.527 for the second.

Compared with ABC-1, SK-MES-1 is lower in relative viability: 0.48 for the first, 0.275 for the second.

Going from NCI-H661 to RERF-LC-KJ, the relative viability rises from 0.447 to 0.509.

same assay, conditions: first compound 0.253 µM

First: 201T
Second: NCI-H1975
The relative viability of the first is higher: 0.537 for the first, 0.216 for the second.

First: HCC-827
Second: NCI-H1299
The relative viability of the first is higher: 0.875 for the first, 0.839 for the second.

Going from NCI-H2347 to NCI-H1355, the relative viability falls from 0.685 to 0.315.

Going from NCI-H650 to NCI-H1666, the relative viability falls from 0.863 to 0.358.

First: NCI-H23
Second: NCI-H1915
The relative viability of the first is lower: 0.482 for the first, 0.853 for the second.

First: NCI-H1437
Second: NCI-H322M
The relative viability of the first is higher: 0.613 for the first, 0.452 for the second.

Going from NCI-H1563 to NCI-H1792, the relative viability falls from 0.616 to 0.198.

Compared with NCI-H2085, HCC-15 is higher in relative viability: 0.434 for the first, 0.665 for the second.

First: NCI-H1944
Second: PC-3 [JPC-3]
The relative viability of the first is lower: 0.309 for the first, 0.609 for the second.

First: EKVX
Second: LC-2-ad
The relative viability of the first is higher: 0.391 for the first, 0.366 for the second.

First: NCI-H1650
Second: NCI-H2170
The relative viability of the first is higher: 0.517 for the first, 0.287 for the second.

Compared with NCI-H1993, SK-LU-1 is lower in relative viability: 0.907 for the first, 0.575 for the second.

Going from ABC-1 to SK-MES-1, the relative viability falls from 0.665 to 0.276.

First: NCI-H661
Second: RERF-LC-KJ
The relative viability of the first is lower: 0.47 for the first, 0.49 for the second.

same assay, conditions: first compound 0.8 µM

Compared with 201T, NCI-H1975 is lower in relative viability: 0.598 for the first, 0.188 for the second.

First: HCC-827
Second: NCI-H1299
The relative viability of the first is higher: 1.12 for the first, 0.779 for the second.

First: NCI-H2347
Second: NCI-H1355
The relative viability of the first is higher: 0.434 for the first, 0.348 for the second.

Going from NCI-H650 to CAL-12T, the relative viability falls from 0.893 to 0.557.

Compared with NCI-H1666, EPLC-272H is lower in relative viability: 0.351 for the first, 0.292 for the second.

First: NCI-H23
Second: NCI-H1915
The relative viability of the first is lower: 0.555 for the first, 0.888 for the second.

Going from NCI-H1437 to NCI-H322M, the relative viability falls from 0.689 to 0.372.

Going from NCI-H1563 to NCI-H1792, the relative viability falls from 0.712 to 0.219.

Compared with NCI-H2085, HCC-15 is higher in relative viability: 0.453 for the first, 0.684 for the second.

First: NCI-H1944
Second: PC-3 [JPC-3]
The relative viability of the first is lower: 0.327 for the first, 0.617 for the second.

Compared with EKVX, LC-2-ad is higher in relative viability: 0.344 for the first, 0.478 for the second.

Going from NCI-H1650 to NCI-H2170, the relative viability falls from 0.621 to 0.301.

Going from NCI-H1993 to ABC-1, the relative viability falls from 0.788 to 0.686.

First: SK-MES-1
Second: NCI-H661
The relative viability of the first is lower: 0.341 for the first, 0.407 for the second.

For RERF-LC-KJ, the relative viability was 0.541.

same assay, conditions: first compound 2.53 µM

First: 201T
Second: NCI-H1975
The relative viability of the first is higher: 0.565 for the first, 0.199 for the second.

Compared with HCC-827, NCI-H1299 is lower in relative viability: 0.895 for the first, 0.88 for the second.

Going from NCI-H2347 to NCI-H1355, the relative viability falls from 0.665 to 0.292.

Compared with CAL-12T, NCI-H1666 is higher in relative viability: 0.261 for the first, 0.329 for the second.

Going from NCI-H23 to NCI-H1915, the relative viability rises from 0.434 to 0.759.

Going from NCI-H1437 to NCI-H322M, the relative viability rises from 0.294 to 0.495.

Going from NCI-H1563 to NCI-H1792, the relative viability falls from 0.617 to 0.162.

Compared with NCI-H2085, HCC-15 is higher in relative viability: 0.426 for the first, 0.692 for the second.

Going from NCI-H1944 to PC-3 [JPC-3], the relative viability rises from 0.304 to 0.629.

First: EKVX
Second: LC-2-ad
The relative viability of the first is lower: 0.32 for the first, 0.369 for the second.

Going from NCI-H1650 to NCI-H2170, the relative viability falls from 0.419 to 0.271.

Going from NCI-H1993 to SK-LU-1, the relative viability falls from 0.822 to 0.586.

Compared with ABC-1, SK-MES-1 is lower in relative viability: 0.634 for the first, 0.358 for the second.

Going from NCI-H661 to RERF-LC-KJ, the relative viability rises from 0.397 to 0.472.

same assay, conditions: first compound 8 µM

First: 201T
Second: NCI-H1975
The relative viability of the first is higher: 0.602 for the first, 0.191 for the second.

First: HCC-827
Second: NCI-H1299
The relative viability of the first is lower: 0.812 for the first, 0.899 for the second.

Compared with NCI-H2347, NCI-H1355 is lower in relative viability: 0.578 for the first, 0.327 for the second.

First: NCI-H650
Second: CAL-12T
The relative viability of the first is higher: 0.822 for the first, 0.388 for the second.

Compared with NCI-H1666, EPLC-272H is higher in relative viability: 0.3 for the first, 0.344 for the second.

First: NCI-H23
Second: NCI-H1915
The relative viability of the first is lower: 0.462 for the first, 0.92 for the second.

Going from NCI-H1437 to NCI-H322M, the relative viability rises from 0.285 to 0.622.

First: NCI-H1563
Second: NCI-H1792
The relative viability of the first is higher: 0.592 for the first, 0.24 for the second.

First: NCI-H2085
Second: HCC-15
The relative viability of the first is lower: 0.447 for the first, 0.701 for the second.

First: NCI-H1944
Second: PC-3 [JPC-3]
The relative viability of the first is lower: 0.297 for the first, 0.719 for the second.

Compared with EKVX, LC-2-ad is higher in relative viability: 0.346 for the first, 0.436 for the second.

First: NCI-H1650
Second: NCI-H2170
The relative viability of the first is lower: 0.208 for the first, 0.276 for the second.

First: NCI-H1993
Second: SK-LU-1
The relative viability of the first is higher: 0.779 for the first, 0.626 for the second.

Going from ABC-1 to SK-MES-1, the relative viability falls from 0.486 to 0.346.

In the case of NCI-H661, the relative viability is reported as 0.489.
